Tests used:
SK-MEL-28 tumor cells = assay: Cell growth inhibition assay (CellTiter-Glo), SK-MEL-28; assay type: cell-based, Human; settings: 3 days incubation
Outline: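 Readout was CellTiter-Glo luminescence (total ATP, surrogate for cell number) after 3-day exposure at 37° C, 5% CO2 to 1:3 serial compound dilutions in 0.2% final DMSO. Seeding was 500 cells/well; IC50 derived by 4-parameter fit relative to vehicle-treated wells.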

A375P F11s tumor cells = assay: Cell growth inhibition assay (CellTiter-Glo), A375P F11s; assay type: cell-based, Human; settings: for IC50: Homo sapiens
Outline: (§1)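 Cells plated at 500 cells/well in their growth media, dosed next day with nine-step 1:3 compound dilutions (final DMSO 0.2%), then incubated 3 days at 37° C, 5% CO2. Total ATP read by CellTiter-Glo luminescence as a surrogate for cell number; IC50 interpolated from 4-parameter fit versus DMSO controls.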

HN5 tumor cells = assay: Cell growth inhibition assay (CellTiter-Glo), HN5; assay type: cell-based, Human; settings: Homo sapiens, 72 h; 3 days incubation
Outline: as §1

ErbB2 = molecular target: T1, ErbB2 (Homo sapiens, UniProt P04626); assay: ErbB-2 substrate phosphorylation assay (HTRF); assay type: biochemical
T1 construct: made in house; host or cells: baculovirus expression system
Outline: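 Baculovirus-expressed EGFR (0.8 nM) or ErbB2 (10 nM) in enzyme mix, preincubated 1 h at 20 °C with compound (0.00027–47.6 μM final), then 90 min at 20 °C with substrate mix of 20 μM ATP, 0.8 uM biotinylated Peptide C, MnCl2, MOPS pH 7.5. Phosphotyrosine by HTRF; pIC50 reported.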

T1 sequence (P04626 23-1255): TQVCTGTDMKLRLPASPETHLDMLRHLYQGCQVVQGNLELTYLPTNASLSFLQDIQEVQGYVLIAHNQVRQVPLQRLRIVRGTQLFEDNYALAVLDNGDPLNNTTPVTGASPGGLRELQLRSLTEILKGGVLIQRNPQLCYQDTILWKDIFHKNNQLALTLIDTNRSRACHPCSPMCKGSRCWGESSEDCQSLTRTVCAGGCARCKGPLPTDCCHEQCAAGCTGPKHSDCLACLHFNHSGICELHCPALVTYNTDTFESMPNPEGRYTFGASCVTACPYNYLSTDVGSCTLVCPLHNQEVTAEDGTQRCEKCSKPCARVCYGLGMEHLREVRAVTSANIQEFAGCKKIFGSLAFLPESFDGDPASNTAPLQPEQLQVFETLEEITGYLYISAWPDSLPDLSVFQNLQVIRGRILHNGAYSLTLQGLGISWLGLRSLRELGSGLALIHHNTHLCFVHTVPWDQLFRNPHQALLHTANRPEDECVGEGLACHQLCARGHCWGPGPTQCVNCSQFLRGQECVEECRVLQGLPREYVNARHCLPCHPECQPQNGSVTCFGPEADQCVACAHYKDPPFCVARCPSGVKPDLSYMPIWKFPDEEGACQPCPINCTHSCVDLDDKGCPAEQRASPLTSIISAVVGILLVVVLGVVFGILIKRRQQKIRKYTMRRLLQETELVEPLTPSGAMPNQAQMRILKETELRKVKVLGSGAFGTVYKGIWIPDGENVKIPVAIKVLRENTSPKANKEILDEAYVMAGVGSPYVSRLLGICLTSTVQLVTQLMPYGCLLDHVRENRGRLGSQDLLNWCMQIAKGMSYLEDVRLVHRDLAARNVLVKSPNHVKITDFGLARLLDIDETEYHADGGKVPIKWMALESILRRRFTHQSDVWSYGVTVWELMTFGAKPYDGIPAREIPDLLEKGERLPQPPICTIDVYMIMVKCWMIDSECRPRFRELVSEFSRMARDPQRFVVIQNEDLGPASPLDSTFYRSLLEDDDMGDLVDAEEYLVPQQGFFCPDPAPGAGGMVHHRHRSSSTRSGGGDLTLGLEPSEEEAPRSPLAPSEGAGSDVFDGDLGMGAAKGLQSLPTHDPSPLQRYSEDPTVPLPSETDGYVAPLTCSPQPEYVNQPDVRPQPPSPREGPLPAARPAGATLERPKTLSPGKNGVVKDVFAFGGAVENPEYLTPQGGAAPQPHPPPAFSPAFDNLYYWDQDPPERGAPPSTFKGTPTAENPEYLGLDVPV

SMILES | IC50 (SK-MEL-28 tumor cells; Homo sapiens, SK-MEL-28, 72 h) | IC50 (A375P F11s tumor cells) | IC50 (HN5 tumor cells) | IC50 (ErbB2) | IC50 (SK-MEL-28 tumor cells) | Activity in A375P F11s Tumor Cells (A375P F11s tumor cells)
CC(C)c1nc(-c2cccc(NS(=O)(=O)C3CCCCC3)c2)c(-c2ccnc(Nc3ccc(N4CCOCC4)c(F)c3)n2)s1 [Example 38] | 100 to 1000 nM | 100 to 1000 nM | > 1000 nM | 100 to 1000 nM |  | 
CC(=O)N1CCN(c2ccc(Nc3nccc(-c4sc(C(C)C)nc4-c4cccc(NS(=O)(=O)C5CCCCC5)c4)n3)cn2)CC1 [Example 39] | 100 to 1000 nM | 100 to 1000 nM | > 1000 nM | > 1000 nM |  | 
Cc1nc(Cl)sc1S(=O)(=O)Nc1cccc(-c2nc(C(C)C)sc2-c2ccnc(Nc3ccc(N4CCOCC4)nc3)n2)c1 [Example 42] | < 100 nM | 100 to 1000 nM | < 100 nM | > 1000 nM |  | 
CC(C)c1nc(-c2cccc(NS(=O)(=O)c3c(F)cccc3F)n2)c(-c2ccnc(Nc3ccc(N4CCOCC4)nc3)n2)s1 [Example 44] | < 100 nM | 100 to 1000 nM | > 1000 nM | > 1000 nM |  | 
COc1ccc(S(=O)(=O)Nc2cccc(-c3nc(C(C)C)sc3-c3ccnc(Nc4ccc(N5CCOCC5)nc4)n3)c2)cn1 [Example 49] | < 100 nM | < 100 nM | > 1000 nM | > 1000 nM |  | 
CC(C)c1nc(-c2cccc(NS(=O)(=O)c3cccs3)c2)c(-c2ccnc(Nc3ccc(N4CCOCC4)nc3)n2)s1 [Example 51] | < 100 nM | < 100 nM | 100 to 1000 nM | 100 to 1000 nM |  | 
CC(C)c1nc(-c2cccc(NS(=O)(=O)c3cccnc3)c2)c(-c2ccnc(Nc3ccc(N4CCOCC4)nc3)n2)s1 [Example 52] | < 100 nM | < 100 nM | 100 to 1000 nM | 100 to 1000 nM |  | 
CC(C)c1nc(-c2cccc(NS(=O)(=O)c3ccco3)c2)c(-c2ccnc(Nc3ccc(N4CCOCC4)nc3)n2)s1 [Example 53] | < 100 nM | < 100 nM | < 100 nM | > 1000 nM |  | 
CC(C)c1nc(-c2cccc(NS(=O)(=O)c3c(F)cccc3F)c2)c(-c2ccnc(Nc3ccc(N4CCOCC4)c(F)c3)n2)o1 [Example 57] | < 100 nM | 100 to 1000 nM | 100 to 1000 nM | > 1000 nM |  | 
Nc1nc(-c2cccc(NS(=O)(=O)c3c(F)cccc3F)c2)c(-c2ccnc(Nc3ccc(N4CCOCC4)nc3)n2)s1 [Example 62] | < 100 nM | < 100 nM | 100 to 1000 nM | 100 to 1000 nM |  | 
CCNc1nc(-c2cccc(NS(=O)(=O)c3ccccc3)c2)c(-c2ccnc(Nc3ccc(OCCN4CCCC4)c(F)c3)n2)s1 [Example 65] |  | 100 to 1000 nM | 100 to 1000 nM | < 100 nM | 100 to 1000 nM | 
CC(=O)N1CCN(c2ccc(Nc3nccc(-c4sc(C(C)C)nc4-c4cccc(NS(=O)(=O)c5cccc(C(F)(F)F)c5)c4)n3)cn2)CC1 [Example 70] | 100 to 1000 nM | 100 to 1000 nM | > 1000 nM | > 1000 nM |  | 
CC(C)(C)c1nc(-c2ccc(F)c(NS(=O)(=O)c3c(F)cccc3F)c2)c(-c2ccnc(Nc3ccc(N4CCN(CCF)CC4)c(F)c3)n2)s1 [Example 99] | 100 to 1000 nM | 100 to 1000 nM | > 1000 nM | < 100 nM |  | 
CC(C)c1nc(-c2cc(F)c(F)c(NS(=O)(=O)c3cccc(F)c3)c2)c(-c2ccnc(Nc3ccc(N4CCN(CCF)CC4)c(F)c3)n2)s1 [Example 101] | 100 to 1000 nM | 100 to 1000 nM | 100 to 1000 nM | 100 to 1000 nM |  | 
CC(C)c1nc(-c2ccc(F)c(NS(=O)(=O)c3c(F)cccc3F)c2)c(-c2ccnc(Nc3ccncc3)n2)s1 [Example 102] | 100 to 1000 nM | 100 to 1000 nM | > 1000 nM | > 1000 nM |  | 
CN1CCC(c2nc(-c3ccc(F)c(NS(=O)(=O)c4c(F)cccc4F)c3)c(-c3ccnc(Nc4ccc(N5CCOCC5)nc4)n3)s2)CC1 [Example 106] | 100 to 1000 nM | < 100 nM | 100 to 1000 nM | 100 to 1000 nM |  | 
CC(C)c1nc(-c2ccc(F)c(NS(=O)(=O)c3ccccc3C#N)c2)c(-c2ccnc(Nc3ccc(N4CCOCC4)nc3)n2)s1 [Example 107] | 100 to 1000 nM | 100 to 1000 nM | > 1000 nM | 100 to 1000 nM |  | 
O=S(=O)(Nc1cc(-c2nc(N3CCCC3)oc2-c2ccnc(Nc3ccc(N4CCN(CCF)CC4)c(F)c3)n2)ccc1F)c1c(F)cccc1F [Example 114] | 100 to 1000 nM | 100 to 1000 nM | > 1000 nM | 100 to 1000 nM |  | 
Cc1cc(Nc2nccc(-c3sc(C(C)C)nc3-c3ccc(F)c(NS(=O)(=O)c4c(F)cccc4F)c3)n2)ccn1 [Example 116] | < 100 nM | 100 to 1000 nM | > 1000 nM | 100 to 1000 nM |  | 
CS(=O)(=O)CCN1CCN(c2ccc(Nc3nccc(-c4oc(N5CCCC5)nc4-c4ccc(F)c(NS(=O)(=O)c5c(F)cccc5F)c4)n3)cc2F)CC1 [Example 119] | 100 to 1000 nM | 100 to 1000 nM | > 1000 nM | 100 to 1000 nM |  | 
O=S(=O)(Nc1cc(-c2nc(N3CCOCC3)sc2-c2ccnc(Nc3ccc(N4CCOCC4)nc3)n2)ccc1F)c1c(F)cccc1F [Example 121] | 100 to 1000 nM | 100 to 1000 nM | 100 to 1000 nM | 100 to 1000 nM |  | 
O=S(=O)(Nc1cccc(-c2nc(N3CCOCC3)sc2-c2ccnc(Nc3ccc(N4CCOCC4)nc3)n2)c1F)c1c(F)cccc1F [Example 122] | < 100 nM | < 100 nM | 100 to 1000 nM | 100 to 1000 nM |  | 
CN1CCN(c2nc(-c3ccc(F)c(NS(=O)(=O)c4c(F)cccc4F)c3)c(-c3ccnc(Nc4ccc(N5CCOCC5)nc4)n3)s2)CC1 [Example 126] | < 100 nM | 100 to 1000 nM | 100 to 1000 nM | 100 to 1000 nM |  | 
O=S(=O)(Nc1cc(-c2nc(N3CCOCC3)sc2-c2ccnc(Nc3ccc4c(c3)OCCO4)n2)ccc1F)c1c(F)cccc1F [Example 127] | 100 to 1000 nM |  | > 1000 nM | 100 to 1000 nM |  | + (activity of >1 μM in A375P F11s tumor cells)
CS(=O)(=O)c1cccc(Nc2nccc(-c3sc(N4CCOCC4)nc3-c3cccc(NS(=O)(=O)c4c(F)cccc4F)c3F)n2)c1 [Example 130] | < 100 nM | < 100 nM | 100 to 1000 nM | 100 to 1000 nM |  | 

Continued, in another order:

IC50 (SK-MEL-28 tumor cells; Homo sapiens, SK-MEL-28, 72 h) | IC50 (A375P F11s tumor cells) | IC50 (HN5 tumor cells) | IC50 (ErbB2) | IC50 (SK-MEL-28 tumor cells) | SMILES | Activity in A375P F11s Tumor Cells (A375P F11s tumor cells)
< 100 nM | 100 to 1000 nM | > 1000 nM | > 1000 nM |  | CC(=O)N1CCN(c2ccc(Nc3nccc(-c4oc(C(C)C)nc4-c4cccc(NS(=O)(=O)c5c(F)cccc5F)c4)n3)cn2)CC1 [Example 56] | 
< 100 nM | < 100 nM | > 1000 nM | 100 to 1000 nM |  | CC(C)c1nc(-c2ccc(F)c(NS(=O)(=O)c3c(F)cccc3F)c2)c(-c2ccnc(Nc3ccc(N4CCN5CCOC[C@H]5C4)nc3)n2)s1 [Example 97] | 
100 to 1000 nM | 100 to 1000 nM | > 1000 nM | < 100 nM |  | CCOc1ccc(Nc2nccc(-c3sc(C(C)C)nc3-c3ccc(F)c(NS(=O)(=O)c4c(F)cccc4F)c3)n2)cc1N1CCN(CCF)CC1 [Example 98] | 
< 100 nM | < 100 nM | < 100 nM | > 1000 nM |  | CC(C)c1nc(-c2ccnc(NS(=O)(=O)c3c(F)cccc3F)c2)c(-c2ccnc(Nc3ccc(N4CCN(CCF)CC4)c(F)c3)n2)s1 [Example 100] | 
< 100 nM | < 100 nM | > 1000 nM | < 100 nM |  | CCOc1ccc(Nc2nccc(-c3sc(N4CCCC4)nc3-c3cccc(NS(=O)(=O)c4c(F)cccc4F)c3)n2)cc1N1CCN(CCS(C)(=O)=O)CC1 [Example 109] | 
100 to 1000 nM | 100 to 1000 nM | > 1000 nM | 100 to 1000 nM |  | CN(C)c1nc(-c2ccc(F)c(NS(=O)(=O)c3c(F)cccc3F)c2)c(-c2ccnc(Nc3ccc(N4CCN(S(C)(=O)=O)CC4)nc3)n2)s1 [Example 112] | 
100 to 1000 nM | 100 to 1000 nM | > 1000 nM | < 100 nM |  | CC(C)c1nc(-c2ccc(F)c(NS(=O)(=O)c3c(F)cccc3F)c2)c(-c2ccnc(Nc3cccc(CCS(N)(=O)=O)c3)n2)s1 [Example 113] | 
< 100 nM | 100 to 1000 nM | 100 to 1000 nM | < 100 nM |  | CC(C)c1nc(-c2ccc(F)c(NS(=O)(=O)c3c(F)cccc3F)c2)c(-c2ccnc(Nc3ccnc(N4CCOCC4)c3)n2)s1 [Example 117] | 
100 to 1000 nM | 100 to 1000 nM | > 1000 nM | < 100 nM |  | COc1cc(N2CCN(CCS(C)(=O)=O)CC2)c(C)cc1Nc1nccc(-c2sc(C(C)(C)C)nc2-c2cccc(NS(=O)(=O)c3c(F)cccc3F)c2)n1 [Example 120] | 
< 100 nM | < 100 nM | 100 to 1000 nM | > 1000 nM |  | CC(C)c1nc(-c2cccc(NS(=O)(=O)c3c(F)cccc3F)c2F)c(-c2ccnc(Nc3ccc(N4CCOCC4)nc3)n2)s1 [Example 123] | 
100 to 1000 nM |  | > 1000 nM | 100 to 1000 nM |  | Cc1cc(N2CCOCC2)ncc1Nc1nccc(-c2sc(N3CCCC3)nc2-c2cccc(NS(=O)(=O)c3c(F)cccc3F)c2)n1 [Example 124] | + (activity of >1 μM in A375P F11s tumor cells)
100 to 1000 nM | 100 to 1000 nM | 100 to 1000 nM | < 100 nM |  | COc1cc(N2CCN(CCS(C)(=O)=O)CC2)c(C)cc1Nc1nccc(-c2sc(N3CCOCC3)nc2-c2cccc(NS(=O)(=O)c3c(F)cccc3F)c2)n1 [Example 128] | 
< 100 nM | < 100 nM | > 1000 nM | 100 to 1000 nM |  | Cc1cc(N2CCN(CCS(C)(=O)=O)CC2)ncc1Nc1nccc(-c2sc(C(C)C)nc2-c2cccc(NS(=O)(=O)c3c(F)cccc3F)c2)n1 [Example 131] | 

From US20110319392A1, “Thiazole Sulfonamide And Oxazole Sulfonamide Kinase Inhibitors” (priority 2009, published 2011)
